The values that follow are results of earlier work, collected in patent US20200338051A1, “NON-CLINICAL LIQUID FORMULATIONS OF PAN-JAK INHIBITOR” (Janssen Pharmaceutica NV, priority 2019, published 2020).

Read-outs that look alike come from different tables or passages of the source.

For one data set, the system named is phosphorylation of STAT4. The settings on record: PBMC, INF-α stimulus.
A further data set deals with JAK2 (Homo sapiens, UniProt O60674). As to conditions: in vitro.
The target of another data set is JAK1 (Homo sapiens, UniProt P23458). As to conditions: in vitro.
JAK1, sequence (P23458 whole entry, species assumed): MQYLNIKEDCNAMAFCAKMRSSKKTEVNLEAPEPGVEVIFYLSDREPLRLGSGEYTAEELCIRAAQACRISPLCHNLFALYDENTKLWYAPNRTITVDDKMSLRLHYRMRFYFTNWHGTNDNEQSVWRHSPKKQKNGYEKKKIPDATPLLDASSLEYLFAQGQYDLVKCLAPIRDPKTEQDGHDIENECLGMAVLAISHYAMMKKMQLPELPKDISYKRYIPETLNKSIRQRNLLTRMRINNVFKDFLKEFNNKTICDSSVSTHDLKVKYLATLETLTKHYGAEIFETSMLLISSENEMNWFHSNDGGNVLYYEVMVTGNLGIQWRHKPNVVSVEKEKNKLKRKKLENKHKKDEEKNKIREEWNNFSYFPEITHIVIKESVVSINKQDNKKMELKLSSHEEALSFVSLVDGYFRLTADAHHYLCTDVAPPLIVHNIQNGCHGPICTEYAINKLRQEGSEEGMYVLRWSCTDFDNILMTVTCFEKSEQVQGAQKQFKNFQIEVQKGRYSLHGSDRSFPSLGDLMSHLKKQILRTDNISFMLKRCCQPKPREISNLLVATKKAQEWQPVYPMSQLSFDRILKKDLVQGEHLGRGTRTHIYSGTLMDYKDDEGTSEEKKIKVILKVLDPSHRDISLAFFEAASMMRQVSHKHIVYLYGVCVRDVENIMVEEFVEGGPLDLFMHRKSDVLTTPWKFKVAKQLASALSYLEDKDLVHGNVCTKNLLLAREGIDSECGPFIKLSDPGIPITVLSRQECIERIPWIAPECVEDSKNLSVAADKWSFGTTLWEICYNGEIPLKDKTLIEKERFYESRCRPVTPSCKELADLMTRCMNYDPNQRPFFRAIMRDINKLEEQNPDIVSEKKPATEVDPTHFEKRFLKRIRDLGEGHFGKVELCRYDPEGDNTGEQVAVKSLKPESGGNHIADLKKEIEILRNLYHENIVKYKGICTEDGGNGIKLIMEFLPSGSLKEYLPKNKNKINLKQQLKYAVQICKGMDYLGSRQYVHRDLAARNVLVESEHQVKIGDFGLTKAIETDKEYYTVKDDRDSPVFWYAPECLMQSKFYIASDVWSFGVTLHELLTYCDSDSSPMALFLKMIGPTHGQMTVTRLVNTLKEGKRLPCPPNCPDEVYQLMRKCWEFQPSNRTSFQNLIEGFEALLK
The test system of data set [1] is phosphorylation of STAT5. The settings on record: PBMC, GM-CSF stimulus.
The next data set deals with TYK2 (Homo sapiens, UniProt P29597). As to conditions: in vitro.
TYK2, sequence (P29597 whole entry, species assumed): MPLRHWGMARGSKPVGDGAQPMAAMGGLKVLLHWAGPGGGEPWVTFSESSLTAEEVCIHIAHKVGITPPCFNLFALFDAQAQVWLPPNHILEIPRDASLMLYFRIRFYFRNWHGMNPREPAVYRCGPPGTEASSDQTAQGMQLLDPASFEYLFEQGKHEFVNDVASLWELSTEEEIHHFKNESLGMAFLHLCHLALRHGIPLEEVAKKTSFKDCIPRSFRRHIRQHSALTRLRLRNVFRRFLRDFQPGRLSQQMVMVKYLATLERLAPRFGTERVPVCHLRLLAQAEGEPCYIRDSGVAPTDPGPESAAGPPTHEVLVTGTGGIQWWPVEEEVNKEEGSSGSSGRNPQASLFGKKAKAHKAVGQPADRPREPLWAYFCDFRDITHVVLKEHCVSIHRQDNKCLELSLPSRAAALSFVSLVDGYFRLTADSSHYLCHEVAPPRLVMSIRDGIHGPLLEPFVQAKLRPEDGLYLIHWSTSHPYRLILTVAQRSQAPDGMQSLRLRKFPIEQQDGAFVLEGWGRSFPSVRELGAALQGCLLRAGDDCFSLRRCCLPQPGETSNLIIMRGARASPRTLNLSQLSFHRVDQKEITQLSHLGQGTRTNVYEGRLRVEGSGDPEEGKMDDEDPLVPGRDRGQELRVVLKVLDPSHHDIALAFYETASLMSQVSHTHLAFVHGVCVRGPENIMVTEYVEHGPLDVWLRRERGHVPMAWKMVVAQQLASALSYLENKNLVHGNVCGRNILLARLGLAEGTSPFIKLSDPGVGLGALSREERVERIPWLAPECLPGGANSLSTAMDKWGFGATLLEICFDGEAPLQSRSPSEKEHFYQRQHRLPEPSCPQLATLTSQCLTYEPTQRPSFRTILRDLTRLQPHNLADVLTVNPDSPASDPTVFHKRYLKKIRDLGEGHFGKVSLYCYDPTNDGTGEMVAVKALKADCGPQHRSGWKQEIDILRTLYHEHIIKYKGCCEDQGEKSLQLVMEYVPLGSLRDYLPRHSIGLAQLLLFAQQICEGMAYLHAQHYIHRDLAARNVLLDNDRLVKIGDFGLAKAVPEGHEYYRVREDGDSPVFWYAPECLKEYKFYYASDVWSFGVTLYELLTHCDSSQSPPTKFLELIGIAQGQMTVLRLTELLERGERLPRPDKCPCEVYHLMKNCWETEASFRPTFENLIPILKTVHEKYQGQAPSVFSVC
Data set [2] has as its system phosphorylation of STAT5. As to conditions: PBMC, IL-2 stimulus.
Another data set deals with T1, JAK3 (Homo sapiens, UniProt P52333).
T1 sequence (P52333 1-1124): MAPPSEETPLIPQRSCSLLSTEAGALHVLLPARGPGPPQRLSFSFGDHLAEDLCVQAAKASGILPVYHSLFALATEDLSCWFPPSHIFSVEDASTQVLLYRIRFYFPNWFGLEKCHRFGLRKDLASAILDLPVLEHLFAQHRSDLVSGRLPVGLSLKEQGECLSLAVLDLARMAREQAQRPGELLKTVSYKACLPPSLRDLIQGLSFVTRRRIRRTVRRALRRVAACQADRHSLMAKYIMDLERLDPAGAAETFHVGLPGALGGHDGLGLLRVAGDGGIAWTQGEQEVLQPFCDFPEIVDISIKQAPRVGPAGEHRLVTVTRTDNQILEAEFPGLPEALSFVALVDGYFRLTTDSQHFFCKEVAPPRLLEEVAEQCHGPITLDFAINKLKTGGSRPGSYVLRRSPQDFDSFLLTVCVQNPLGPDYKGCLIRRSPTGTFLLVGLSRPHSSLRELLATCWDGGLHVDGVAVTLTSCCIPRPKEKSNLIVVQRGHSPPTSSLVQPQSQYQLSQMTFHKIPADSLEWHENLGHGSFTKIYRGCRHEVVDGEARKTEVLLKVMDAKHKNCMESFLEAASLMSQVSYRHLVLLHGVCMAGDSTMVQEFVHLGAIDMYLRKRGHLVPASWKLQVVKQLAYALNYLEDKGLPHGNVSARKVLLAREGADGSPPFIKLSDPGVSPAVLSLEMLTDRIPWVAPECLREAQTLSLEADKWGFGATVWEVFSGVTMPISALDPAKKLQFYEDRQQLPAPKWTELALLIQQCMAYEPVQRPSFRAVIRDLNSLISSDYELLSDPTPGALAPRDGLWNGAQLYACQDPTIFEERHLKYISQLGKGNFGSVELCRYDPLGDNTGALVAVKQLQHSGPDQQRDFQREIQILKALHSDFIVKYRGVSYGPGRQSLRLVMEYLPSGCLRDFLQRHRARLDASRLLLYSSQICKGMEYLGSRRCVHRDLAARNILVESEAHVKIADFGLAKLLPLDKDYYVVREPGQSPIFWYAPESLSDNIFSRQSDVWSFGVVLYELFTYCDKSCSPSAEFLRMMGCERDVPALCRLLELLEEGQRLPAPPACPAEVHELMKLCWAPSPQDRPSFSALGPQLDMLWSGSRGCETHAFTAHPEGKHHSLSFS
The settings on record: in vitro.

JAK2, sequence (O60674 whole entry, species assumed): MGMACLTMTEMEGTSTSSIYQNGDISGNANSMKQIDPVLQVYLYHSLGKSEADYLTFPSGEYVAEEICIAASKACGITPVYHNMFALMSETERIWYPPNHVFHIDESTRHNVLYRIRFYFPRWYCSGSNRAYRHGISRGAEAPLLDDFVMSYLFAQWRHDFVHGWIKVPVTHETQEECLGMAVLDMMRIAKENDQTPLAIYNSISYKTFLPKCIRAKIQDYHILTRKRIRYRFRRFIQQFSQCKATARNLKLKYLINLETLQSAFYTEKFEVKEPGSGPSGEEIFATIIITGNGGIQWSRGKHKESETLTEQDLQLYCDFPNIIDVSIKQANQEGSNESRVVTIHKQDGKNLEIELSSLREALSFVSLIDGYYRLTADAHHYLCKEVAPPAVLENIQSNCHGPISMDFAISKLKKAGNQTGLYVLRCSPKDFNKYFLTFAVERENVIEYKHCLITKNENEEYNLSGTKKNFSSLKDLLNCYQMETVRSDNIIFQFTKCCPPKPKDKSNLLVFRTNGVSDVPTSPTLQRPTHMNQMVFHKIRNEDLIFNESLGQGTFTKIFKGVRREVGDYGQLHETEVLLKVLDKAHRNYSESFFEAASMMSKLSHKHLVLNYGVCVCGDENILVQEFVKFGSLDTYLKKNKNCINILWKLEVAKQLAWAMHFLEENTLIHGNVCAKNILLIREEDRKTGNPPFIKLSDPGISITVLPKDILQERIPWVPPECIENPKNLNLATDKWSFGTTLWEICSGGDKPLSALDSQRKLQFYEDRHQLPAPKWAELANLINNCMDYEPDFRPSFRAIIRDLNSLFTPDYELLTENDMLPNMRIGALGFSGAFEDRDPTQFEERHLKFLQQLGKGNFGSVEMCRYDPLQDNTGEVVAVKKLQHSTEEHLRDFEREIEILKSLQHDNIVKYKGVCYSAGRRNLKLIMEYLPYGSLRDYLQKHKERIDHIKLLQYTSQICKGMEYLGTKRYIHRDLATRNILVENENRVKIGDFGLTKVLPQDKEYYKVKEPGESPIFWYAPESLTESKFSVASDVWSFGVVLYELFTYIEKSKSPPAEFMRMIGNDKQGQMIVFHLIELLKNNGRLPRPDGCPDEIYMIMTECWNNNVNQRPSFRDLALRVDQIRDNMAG

For the molecule `CC(C)(O)CNC(=O)Cc1nc2cnc3[nH]ccc3c2n1[C@H]1CC[C@H](CC#N)CC1` [drug substance, 2-(1-((1r,4r)-4-(cyanomethyl)cyclohexyl)-1,6-dihydroimidazo[4,5-d]pyrrolo[2,3-b]pyridin-2-yl)-N-(2-hydroxy-2-methylpropyl)acetamide], the “Inhibition of phosphorylation of STAT4” value in the data set on phosphorylation of STAT4 is “showed cellular activity”. For the same molecule, the “Enzymatic activity at JAK2” value at JAK2 is recorded as “potent enzymatic activity”. The “Enzymatic activity at JAK1” value on JAK1 is listed as “potent enzymatic activity”. Also, the “Inhibition of phosphorylation of STAT5” value in the data set on phosphorylation of STAT5 [1] and in the data set with phosphorylation of STAT5 [2] was “showed cellular activity” in each case. Under “in vivo”, the Systemic exposure result was “low systemic exposure”. Also, the “Concentrations in the colon versus plasma” value is “much higher than those in the plasma” (intra-colonic dosing) and “much higher than those in the plasma” (oral dosing). Also, the “Enzymatic activity at TYK2” value at TYK2 is recorded as “potent enzymatic activity”. The “Enzymatic activity at JAK3” value on JAK3 is “potent enzymatic activity”.
